Where two headings read alike, the source gives them in different places.
Key:
[1] = test system: clotting induced by negatively charged phospholipids in normal plasma
Experimental: The ability of NST300 compounds to inhibit coagulaton catalyzed by negatively—charged phospholipids was evaluated in a standard coagulation test of the Russell viper venom (RVV) assay. The RVV reagent directly activates factor x present in the plasma, thus promoting prothrombinase complex formation. This reagent is widely used as a standard phospholipid responsive clotting test. (Thiagarajan et al., Blood, 1986; 869-874).
The RVV reagent kit, containing RVV and negatively charged phospholipids, from Gradipore, Australia was used. The reactions were started by mixing 100 μl of RVV reagent, and 100 μl of quality control plasma collected from normal individuals (commercially available from Instrumentation Laboratory, Italy). Clotting time was determined as the time-point beyond which the continuously mixed reaction ingredients in the test tube, could no longer be aspirated with a pasteur pipette. Clotting time was measured independently by two separate researchers.

[2] = test system: procoagulant activity of apoptotic HeLa S3 cells; conditions: 0.5 μM; for effect on procoagulant effect of apoptotic cells: FIG. 5a
Experimental: In the standard APTT test, clot formation is triggered by recalcification of plasma and addition of cephalin, i.e. negatively-charged phospholipids. Time until clot formation was measured as described in Example 3. […] In the modified APTT test, used in the present study, the addition of negatively-charged phospholipids (cephalin) was replaced by addition of apoptotic cells.
The cultured medium was discarded, and cells that were loosely attached to the growing surface, were collected in PBS, as described in Example 2B. These cells were washed and resuspended in TBS, and were regarded as advanced apoptotic cells. Equal numbers of apoptotic or control non-treated cells (10^5) in a volume of 100 μl, were mixed with 100 μl of 25 mM of CaCl2 and the clotting time was measured. […] Inhibition of their procoagulant activity by NST300 compounds was tested following pre-incubation of apoptotic cells with the different NST300 compounds.
Pre-incubation of equal numbers of apoptotic or control non-treated cells (10^5) with NST300 compounds was for 10 minutes at room temperature in a final volume of 100 μl. The compounds were used at concentration of 0.5 μM. The results can be seen in FIG. 5a.

[3] = test system: HeLa cells undergoing dopamine-induced apoptosis; conditions: 750 nM
Experimental: HeLa cells were plated on tissue culture plates at a density of 3×10^6 cells/10 cm dish, and grown in a DMEM medium containing 10% FCS, as described in A. The cells were then incubated at 37° C. overnight, and then the medium was replaced with a medium containing 2% FCS and 500 μM of dopamine. 18 hours later, the medium was aspirated and discarded, and 10 ml of Phosphate Buffered Saline pH 7.4 (PBS) were added to the culture dish. The cells which were detached from the culture dish into the PBS were collected. These cells represent advanced apoptotic cells. The remaining cells which were attached to the culture dish were trypsinized by the addition of 2 ml of trypsin for 2 minutes at 37° C., followed by the addition of 10 ml of a medium containing 10% of FCS. The cells were then washed with PBS containing 2% Bovine Serum Albumin (BSA), and resuspended in TBS containing 2% BSA (TBS-BSA). These cells were regarded as early apoptotic cells. […] Only non-treated cells that were attached to the culture dish were used as control cells for the FACS analysis.
A set of 3 different cell types was taken:
The incubation with the NST300 compounds or control compound was performed in a final volume of 100 μl TBS-BSA, 5 μg/ml of propidium iodide (PI) and 750 nM of the tested compound or the control compound.
PI is a red fluorescent dye that stains DNA. […] Only cells that are in advanced apoptotic stages, or cells that have already died by apoptosis or necrosis will be permeable to PI and will be stained with the dye. […] The cells were then washed in 500 μl of cold TBS-BSA and centrifugated as before. The cells were then suspended in 100 μl of TBS-BSA containing streptavidin conjugated to fluorescein (FITC). […] Thereafter, the cells were washed three times in TBS-BSA and were taken for FACS analysis.
The FACS analysis was performed on a Beckton-Dickinson cell sorter, using lysis II software. Excitation was at 488 nm and the emission or FITC detection was at 535 nm and for PI detection at 585 nm.

[4] = test system: HeLa S3 cells undergoing dopamine (DA)-induced apoptosis
Experimental: Said compounds were each dissolved in TBS (Tris Buffered Saline; 10 mM Tris PH 8.0; 150 mM NaCl), at a stock concentration of 10 mM.
HeLa S3 cells (ATCC CCL-2.2) were cultured on a glass chamber slide (Nunc) on a culture area of […]. Chamber slides were pre-coated with 1% gelatin (Sigma) Cells were seeded at a density of 8×10^4 cells/chamber, in a volume of 300 μl of culture medium [Dulbecco's Modified Eagle's Medium (DMEM) supplemented with 2 mM of L-Glutamine; 100 units/ml of Penicilin; 100 μg/ml of Streptomycin; 12.5 units/ml of Nystatin and 10% of Fetal Calf Serum (FCS)]. Following 24 hours of incubation the cells were treated with an apoptotic trigger [i.e. dopamine (DA), which is a well characterized model of apoptosis (Lou et al., J. Biol. Chem. 1998; 273:3756-3764)].
For the DA treatment, the culture medium was replaced by a low serum containing medium (2% FCS), with 500 μM of dopamine (from RBI, Mass., USA) for 18 hours.
The evaluation was performed by staining with Hoechst 33342 dye (Molecular probes). This blue fluorescent dye is rapidly permeable into cells and stains DNA. Hoechst 33342 was added to growing cultures at a concentration of 1 μg/ml and 20 minutes later, the cells were visualized under UV light microscopy. The relative number of apoptotic cells with condensed or fragmented chromatin was then evaluated and compared with non-apoptotic cells which characteristically show a pale and diffuse staining. Photomicrographs were taken for documentation. […] This method was used to evaluate the level of apoptosis in cultured cells prior to binding to the NST300 compounds.
Apoptotic, as well as control untreated cells were grown as specified above and washed twice with TBS. The slides were then incubated with the NST300 compound at concentrations of 250-750 nM for 60 minutes, in a total volume of 100 μl. Slides were then dipped into a Couplin Jar containing 50 ml of TBS, and then incubated with 50 ng/ml of a sterptavidin reagent labeled with FITC (Fluorescein Isothiocyanate Conjugated, from Jackson Immunolaboratory U.S.A.). […] The slides were then washed with TBS as above and were then mounted with Fluoroguard antifade reagent (from Biorad Calif., USA).
The binding was then evaluated with a fluorescent microscope (IX70; Olympus), using a NIBA filter (Narrow Interference Blue A from Olympus).

[5] = rabbits, intravenous injection; cited from earlier work
apoptotic hepatocytes = format: in vivo; conditions: data not shown
Experimental: All animals were killed 2 hr after administration of antibody followed by organ removal. Heart, lung and liver were collected.
Formalin fixed paraffin-embedded tissues were sectioned (5 μm) for staining with Hematoxylin/Eosin or other techniques.
Endogenous peroxidase activity was blocked by incubation with 3% H2O2.
After washing with PBS, staining was developed with 3,3-diaminobenzidine tetrahydrochloride (DAB), and counterstained with Hematoxylin.
Liver sections from different lobes were used for detection of stained apoptotic cells compared to normal cells.
The percentage of apoptotic cells in the fields was estimated by evaluating parallel sections stained with Hematoxylin/Eosin. Analysis was performed blindly, since the pathologist performing the histological evaluation was unaware of the assignment of mice to the treatment or control group.

[6] = biological target: anionic phospholipid membranes; conditions: cited from earlier work
[7] = test system: Human Umbilical Vein Endothelial Cells (HUVEC); conditions: 500 ng of compound, 40 minutes
Experimental: HUVEC (CC-2517, obtained from Clonetics, Walkersville, Md.) were grown on tissue culture flasks in Endothelial cell medium (EGM-2 Bulletkit, CC 3162, Clonetics). Mid-confluent cultures were harvested using Trypsine/EDTA solution (CC-5012, Clonetics). The cells were rinsed twice with PBS containing 2% BSA and kept on ice. Samples of 10^6 cells were tested for binding.
The reactions were incubated at room temperature for 40 minutes and then 400 μl of TBS-BSA were added and cells were collected by centrifugation at 3000×g for 3 minutes. Cells were washed in 1 ml of TBS-BSA and centrifuged as before and then suspended in 100 μl of TBS-BSA containing streptavidin conjugated to flourescein (FITC) for detection of the bound biotinylated compound. […] Thereafter, 400 μl of TBS-BSA were added and cells were centrifuged and washed again with 1 ml of TBS-BSA as before and then resuspended in 400 μl of TSS and taken for FACS analysis.
The FACS analysis was performed on Beckton-Dickinson cell sorter, using lysis II software. Excitation was at 488 nm and emission for FITC detection was a 535 nm.
A dot plot analysis was done for each treatment.

Row | Substance | increase of clotting time by a factor as compared to control ([1]; 0.5-50 μM, control clotting time 40 seconds) | effect on procoagulant effect of apoptotic cells [2] | increase of clotting time by a factor ([2]; apoptotic cells) | detection of early apoptotic cells ([3]; FIG. 3c) | early apoptotic cells double stained also with PI ([3]; early apoptotic cells) [%] | binding intensity: ratio of FITC mean value of apoptotic cells to that of control cells ([3]; early apoptotic cells, FIG. 3b) [fold] | total FITC/total PI ratio ([3]; advanced apoptotic cells) | total FITC/total PI ratio ([3]; early apoptotic cells) | staining of advanced apoptotic cells ([4]; 750 nM, FIG. 2c) | staining of cells in early apoptotic stages ([4]; 750 nM, FIG. 2c) | staining of control non-treated HeLa cells ([4]; 750 nM, fluorescent microscopy) | clearance within 5 minutes [5] [%] | staining pattern when exogenously added to the apoptotic cells (apoptotic hepatocytes) | Kd [6] [nM] | anti-coagulant effect ([1]; RVV test, FIG. 4) | effect on procoagulant effect of apoptotic cells ([2]; listed as NST 301-C) | cells FITC positive [7] [%] | staining of DA-induced apoptotic HeLa cells ([4]; 250-750 nM compound, streptavidin-FITC, fluorescent microscopy)
1 | Myristate-GGGKKKKKRFSFKKSFKLSGFSFKKNKKK (SEQUENCE ID NO. 1)-(biotin) [NST301] | 2.6 | fully reversing | 2 | potent detector | 43 | 4 | 1.2 | 2.2 | intense labeling | light, peripheral staining | few of them were stained, and very faintly | – | – | – | – | – | – | –
2 | Annexin V: 320 amino acid protein of the annexin family, Ca2+-dependent binding to anionic phospholipid membranes | – | – | – | – | – | – | – | – | – | – | – | 90 | same pattern of staining | 0.01 to 1 | – | – | – | –
3 | GGGKKKKKRFSFKKSFKLSGFSFKKNKKK (SEQUENCE ID NO. 3) (Biotin)-OH [NST301-C, reference compound] | – | mild effect | – | – | – | – | – | – | – | – | – | – | – | – | Significant, though moderate effect | very modest effect | 7 | did not show any significant binding
